Data taken from US9695155B2, “Herbicidal substituted pyrimidinyloxy benzene compounds” (E. I. DU PONT DE NEMOURS AND COMPANY, priority 2013, dated 2017).

What was measured:
cocklebur = test: Test E preemergence; type: in vivo, Xanthium strumarium; conditions: for Plant response rating, Cocklebur: scale 0 to 100, 0 no effect, 100 complete control
Procedure, shortened: (§1)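 Response was scored visually on a 0-100 scale (100 = complete control) versus controls after 14 to 21 days in the greenhouse. Test chemicals, formulated with surfactant in a non-phytotoxic solvent mixture, had been applied preemergence to seeds in silt loam soil or postemergence to 1- to 4-leaf plants in potting medium.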

wild mustard = test: Test D preemergence; type: in vivo, Sinapis arvensis; conditions: Brassica, pre-emergence, scale 0-100, read-out: Plant response rating, Mustard, Wild
Procedure, shortened: (§2)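 In a controlled growth environment, treated and control plants were held 7 to 21 days, then compared visually. Damage was scored 0–100, where 100 means complete control. Sprays contained surfactant in a non-phytotoxic solvent; post-applied plants were at the 1- to 4-leaf stage.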

velvetleaf = test: Test E preemergence; type: in vivo, Abutilon theophrasti; conditions: for Velvetleaf plant response rating: scale 0 to 100 (0 no effect, 100 complete control); for Plant response rating, Velvetleaf: scale 0 to 100, 0 no effect, 100 complete control
Procedure, shortened: as §1

surinam grass = test: Test E preemergence; type: in vivo, Brachiaria decumbens; conditions: for Surinam Grass plant response rating: scale 0 to 100 (0 no effect, 100 complete control); for Plant response rating, Surinam Grass: scale 0 to 100, 0 no effect, 100 complete control
Procedure, shortened: as §1

Brazilian crabgrass = test: Test E preemergence; type: in vivo, Digitaria horizontalis; conditions: for Crabgrass, Brazil plant response rating: scale 0 to 100 (0 no effect, 100 complete control); for Plant response rating, Crabgrass, Brazil: scale 0 to 100, 0 no effect, 100 complete control
Procedure, shortened: as §1

large (Lg) crabgrass = test: Test E preemergence; type: in vivo, Digitaria sanguinalis; conditions: for Crabgrass, Large plant response rating: scale 0 to 100 (0 no effect, 100 complete control); for Plant response rating, Crabgrass, Large: scale 0 to 100, 0 no effect, 100 complete control
Procedure, shortened: as §1

lambsquarters = test: Test E preemergence; type: in vivo, Chenopodium album; conditions: for Lambsquarters plant response rating: scale 0 to 100 (0 no effect, 100 complete control); for Plant response rating, Lambsquarters: scale 0 to 100, 0 no effect, 100 complete control
Procedure, shortened: as §1

kochia = test: Test D preemergence; type: in vivo, Kochia scoparia; conditions: Bassia scoparia, pre-emergence, scale 0-100, read-out: Plant response rating, Kochia
Procedure, shortened: as §2

arrowleaf sida = test: Test E preemergence; type: in vivo, Sida rhombifolia; conditions: for Arrowleaf Sida plant response rating: scale 0 to 100 (0 no effect, 100 complete control); for Plant response rating, Arrowleaf Sida: scale 0 to 100, 0 no effect, 100 complete control
Procedure, shortened: as §1

barnyardgrass = test: Test E preemergence; type: in vivo, Echinochloa crus-galli; conditions: for Barnyardgrass plant response rating: scale 0 to 100 (0 no effect, 100 complete control); for Plant response rating, Barnyardgrass: scale 0 to 100, 0 no effect, 100 complete control
Procedure, shortened: as §1

SMILES: N#Cc1cccc(Oc2ncc(Cl)cn2)c1-n1cc(C(F)(F)F)cn1 [Compound 58, 3-[(5-chloro-2-pyrimidinyl)oxy]-2-[4-(trifluoromethyl)-1H-pyrazol-1-yl]benzonitrile]
- Cocklebur plant response rating (cocklebur; 31 g ai/ha, scale 0 to 100 (0 no effect, 100 complete control)): 0
- Plant response rating, Cocklebur (cocklebur; 125 g ai/ha): 0
- Plant response rating, Cocklebur (cocklebur; 250 g ai/ha): 50
- pest or weed control at 31 g/ha (wild mustard; 31 g ai/ha): 90%
- pest or weed control at 62 g/ha (wild mustard; 62 g ai/ha): 100%
- pest or weed control at 125 g/ha (wild mustard; 125 g ai/ha): 100%
- pest or weed control at 250 g/ha (wild mustard; 250 g ai/ha): 100%
- Velvetleaf plant response rating (velvetleaf; 16 g ai/ha): 40
- Velvetleaf plant response rating (velvetleaf; 31 g ai/ha): 70
- Velvetleaf plant response rating (velvetleaf; 62 g ai/ha): 90
- Plant response rating, Velvetleaf (velvetleaf; 125 g ai/ha): 100
- Plant response rating, Velvetleaf (velvetleaf; 250 g ai/ha): 100
- Surinam Grass plant response rating (surinam grass; 16 g ai/ha): 0
- Surinam Grass plant response rating (surinam grass; 31 g ai/ha): 0
- Surinam Grass plant response rating (surinam grass; 62 g ai/ha): 25
- Plant response rating, Surinam Grass (surinam grass; 125 g ai/ha): 65
- Plant response rating, Surinam Grass (surinam grass; 250 g ai/ha): 90
- Crabgrass, Brazil plant response rating (Brazilian crabgrass; 16 g ai/ha): 100
- Crabgrass, Brazil plant response rating (Brazilian crabgrass; 31 g ai/ha): 100
- Crabgrass, Brazil plant response rating (Brazilian crabgrass; 62 g ai/ha): 100
- Plant response rating, Crabgrass, Brazil (Brazilian crabgrass; 125 g ai/ha): 100
- Plant response rating, Crabgrass, Brazil (Brazilian crabgrass; 250 g ai/ha): 100
- Crabgrass, Large plant response rating (large (Lg) crabgrass; 16 g ai/ha): 75
- Crabgrass, Large plant response rating (large (Lg) crabgrass; 31 g ai/ha): 100
- Crabgrass, Large plant response rating (large (Lg) crabgrass; 62 g ai/ha): 100
- Plant response rating, Crabgrass, Large (large (Lg) crabgrass; 125 g ai/ha): 100
- Plant response rating, Crabgrass, Large (large (Lg) crabgrass; 250 g ai/ha): 100
- Lambsquarters plant response rating (lambsquarters; 16 g ai/ha): 98
- Lambsquarters plant response rating (lambsquarters; 31 g ai/ha): 98
- Lambsquarters plant response rating (lambsquarters; 62 g ai/ha): 98
- Plant response rating, Lambsquarters (lambsquarters; 125 g ai/ha): 98
- Plant response rating, Lambsquarters (lambsquarters; 250 g ai/ha): 98
- pest or weed control at 31 g/ha (kochia; 31 g ai/ha): 95%
- pest or weed control at 62 g/ha (kochia; 62 g ai/ha): 95%
- pest or weed control at 125 g/ha (kochia; 125 g ai/ha): 95%
- pest or weed control at 250 g/ha (kochia; 250 g ai/ha): 95%
- Arrowleaf Sida plant response rating (arrowleaf sida; 16 g ai/ha, preemergence): 80
- Arrowleaf Sida plant response rating (arrowleaf sida; 31 g ai/ha, preemergence): 100
- Plant response rating, Arrowleaf Sida (arrowleaf sida; Preemergence, 62 g ai/ha): 100
- Plant response rating, Arrowleaf Sida (arrowleaf sida; preemergence, 125 g ai/ha): 100
- Plant response rating, Arrowleaf Sida (arrowleaf sida; preemergence, 250 g ai/ha): 100
- Barnyardgrass plant response rating (barnyardgrass; 16 g ai/ha, preemergence): 20
- Barnyardgrass plant response rating (barnyardgrass; 31 g ai/ha, preemergence): 40
- Plant response rating, Barnyardgrass (barnyardgrass; Preemergence, 62 g ai/ha): 90
- Plant response rating, Barnyardgrass (barnyardgrass; preemergence, 125 g ai/ha): 95
- Plant response rating, Barnyardgrass (barnyardgrass; preemergence, 250 g ai/ha): 98
